The results in this text go back to US20140135310A1, “SULPHONAMIDE DERIVATIVES OF ALICYCLIC AMINES FOR THE TREATMENT OF CENTRAL NERVOUS SYSTEM DISEASES” (Adamed Sp. z o.o., priority 2011, published 2014).

The target of test [1] is T1, M3 muscarinic receptors (Homo sapiens, UniProt P20309).
T1 construct: expressed in transfected cells; host or cells: CHO cells
The experiment in a line: Radioligand binding assay, muscarinic M3 receptors. To be noted: test compound 1×10^−6 M. In outline: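 Radioligand competition binding, detected by scintillation counting; non-specific binding defined with excess unlabelled ligand. Results given as % inhibition of control specific binding; IC50 from Hill-equation fit of competition curves, Ki via Cheng-Prusoff with radioligand KD from Scatchard plot.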

The target in test [2] is T2, H1 histaminergic receptors (Homo sapiens, UniProt P35367).
T2 construct: expressed in transfected cells; host or cells: HEK-293 cells
T2 sequence (P35367 whole entry): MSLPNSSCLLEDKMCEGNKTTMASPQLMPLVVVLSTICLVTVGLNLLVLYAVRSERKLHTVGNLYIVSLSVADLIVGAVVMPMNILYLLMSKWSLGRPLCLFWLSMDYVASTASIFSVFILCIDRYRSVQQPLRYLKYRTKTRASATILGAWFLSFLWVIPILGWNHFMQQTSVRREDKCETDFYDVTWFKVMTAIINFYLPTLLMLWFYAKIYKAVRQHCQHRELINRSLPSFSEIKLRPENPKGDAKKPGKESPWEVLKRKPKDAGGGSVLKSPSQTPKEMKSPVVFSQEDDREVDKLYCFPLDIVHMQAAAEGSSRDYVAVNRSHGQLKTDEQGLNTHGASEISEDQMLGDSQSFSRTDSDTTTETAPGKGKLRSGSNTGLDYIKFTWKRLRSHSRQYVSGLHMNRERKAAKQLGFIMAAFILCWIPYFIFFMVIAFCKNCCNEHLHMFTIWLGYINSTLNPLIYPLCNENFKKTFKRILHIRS
In words: Radioligand binding assay, histaminergic H1 receptors. The note with it: human recombinant (HEK-293 cells), [3H]pyrilamine 1 nM. In outline:
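Competition binding at human H1 receptors; specific binding taken as total minus non-specific binding in excess unlabelled ligand, scintillation read-out. IC50 from Hill-equation fit of competition curves; Ki by Cheng-Prusoff using radioligand concentration and Kd (from Scatchard plot).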

Test [3] concerns σ receptors. In words: Radioligand binding assay, σ receptors. The note with it: rat cerebral cortex, [3H]DTG 8 nM. The gist of the method:
(§1)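 Values derive from radioligand displacement, with non-specific binding defined by excess cold ligand and detection by scintillation. Hill-fit IC50s were converted to Ki via Cheng-Prusoff using Scatchard-derived Kd; percent inhibition of control specific binding also reported.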

The target of test [4] is dopaminergic receptors D3 (Homo sapiens, UniProt P35462). In words: Radioligand binding assay, dopaminergic D3 receptors. To be noted: test compound 1×10^−6 M. The gist of the method:
(§2)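 Scintillation read-out. Specific = total − nonspecific (excess cold ligand). Data as % of control specific binding / % inhibition; IC50 by Hill fit; Ki = IC50/(1+L/KD), KD from Scatchard plot.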

For test [5], the target named is dopaminergic receptors D2 (Homo sapiens, UniProt P14416). In words: Radioligand binding assay, dopaminergic D2 receptors. To be noted: for inhibition at 1 µM: binding assay, test compound 1×10^−6 M; for Ki: read-out: Inhibition constants Ki for D2 receptors, D2. The gist of the method: as §2
Chain of dopaminergic receptors D2 (P14416 whole entry): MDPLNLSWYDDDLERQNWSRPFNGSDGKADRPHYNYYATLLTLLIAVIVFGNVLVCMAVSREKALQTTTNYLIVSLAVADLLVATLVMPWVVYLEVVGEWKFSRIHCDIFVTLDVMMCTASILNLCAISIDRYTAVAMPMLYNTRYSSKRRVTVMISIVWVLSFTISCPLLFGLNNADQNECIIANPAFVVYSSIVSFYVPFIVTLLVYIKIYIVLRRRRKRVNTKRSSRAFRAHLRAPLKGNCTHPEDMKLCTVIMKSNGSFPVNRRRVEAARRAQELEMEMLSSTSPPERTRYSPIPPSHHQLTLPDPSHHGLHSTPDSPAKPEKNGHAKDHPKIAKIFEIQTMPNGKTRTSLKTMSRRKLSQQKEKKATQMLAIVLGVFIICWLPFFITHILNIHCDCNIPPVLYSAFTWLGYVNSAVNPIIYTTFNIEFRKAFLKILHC
The subject of test [6] is α1 adrenergic receptors (rat cerebral cortex). The experiment in a line: Radioligand binding assay, adrenergic α1 receptors. The note with it: test compound 1×10^−6 M. The gist of the method:
as §1

The target in test [7] is T3, 5-HT2C receptor (Homo sapiens, UniProt P28335).
T3 construct: expressed in transfected cells; host or cells: HEK-293 cells
T3 sequence (P28335 33-458): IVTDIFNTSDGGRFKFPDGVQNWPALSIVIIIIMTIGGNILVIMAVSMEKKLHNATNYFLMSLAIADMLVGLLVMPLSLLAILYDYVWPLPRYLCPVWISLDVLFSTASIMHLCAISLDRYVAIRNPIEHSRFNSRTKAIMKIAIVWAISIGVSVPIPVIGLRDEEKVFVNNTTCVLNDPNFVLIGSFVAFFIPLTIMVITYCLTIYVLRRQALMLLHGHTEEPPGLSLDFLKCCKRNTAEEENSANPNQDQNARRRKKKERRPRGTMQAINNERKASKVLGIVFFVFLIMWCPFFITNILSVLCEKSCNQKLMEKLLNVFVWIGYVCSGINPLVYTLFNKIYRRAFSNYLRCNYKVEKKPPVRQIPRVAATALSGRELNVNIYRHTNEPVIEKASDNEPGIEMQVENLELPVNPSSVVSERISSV
The experiment in a line: Radioligand binding assay, serotoninergic 5-HT2C receptors. The note with it: test compound 1×10^−6 M.

Test [8] has as its target D3 dopaminergic receptors (Homo sapiens, UniProt P35462). In words: Cellular functional assay, D3 dopaminergic receptors. It counts as cell-based. The note with it: D3 (h), CHO cells; for D3 ag [%]: agonism, percent of control specific agonist response (0.3 μM dopamine for control); for D3 antag [%]: antagonism, stimulus dopamine (10 nM). The gist of the method: (§3)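 Responses expressed as percent of control specific agonist response; EC50 or IC50 from Hill-equation nonlinear fits of mean replicate concentration-response curves. For antagonists, Kb derived by modified Cheng-Prusoff using reference agonist concentration and its EC50.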

For test [9], the target named is 5-HT7 serotoninergic receptors (Homo sapiens, UniProt P34969). The experiment in a line: Cellular functional assay, 5-HT7 serotoninergic receptors. The note with it: agonist mode; percent of control specific agonist response. The format is cell-based. The gist of the method:
as §3

For test [10], the target named is 5-HT6 serotoninergic receptors (Homo sapiens, UniProt P50406). In words: Cellular functional assay, 5-HT6 serotoninergic receptors. It counts as cell-based. The note with it: agonist mode; percent of control specific agonist response. The gist of the method:
as §3

T1 sequence (P20309 whole entry): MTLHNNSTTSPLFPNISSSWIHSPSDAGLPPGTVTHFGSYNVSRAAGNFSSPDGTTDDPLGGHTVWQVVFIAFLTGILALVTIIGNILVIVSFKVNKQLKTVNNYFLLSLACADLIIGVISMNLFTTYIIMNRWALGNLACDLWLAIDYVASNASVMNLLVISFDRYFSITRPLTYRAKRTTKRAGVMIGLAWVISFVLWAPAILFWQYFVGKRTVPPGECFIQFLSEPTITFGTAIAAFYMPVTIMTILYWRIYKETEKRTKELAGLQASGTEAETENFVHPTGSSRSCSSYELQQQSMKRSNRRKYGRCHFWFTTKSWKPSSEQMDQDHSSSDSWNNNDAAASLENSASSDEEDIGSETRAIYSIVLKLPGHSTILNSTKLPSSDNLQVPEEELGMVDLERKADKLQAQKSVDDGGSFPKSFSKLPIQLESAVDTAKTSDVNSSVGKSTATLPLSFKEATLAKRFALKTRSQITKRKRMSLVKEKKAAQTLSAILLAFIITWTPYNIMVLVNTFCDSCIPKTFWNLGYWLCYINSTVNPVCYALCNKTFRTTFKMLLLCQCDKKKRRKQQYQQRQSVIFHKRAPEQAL
Chain of 5-HT7 serotoninergic receptors (P34969 whole entry): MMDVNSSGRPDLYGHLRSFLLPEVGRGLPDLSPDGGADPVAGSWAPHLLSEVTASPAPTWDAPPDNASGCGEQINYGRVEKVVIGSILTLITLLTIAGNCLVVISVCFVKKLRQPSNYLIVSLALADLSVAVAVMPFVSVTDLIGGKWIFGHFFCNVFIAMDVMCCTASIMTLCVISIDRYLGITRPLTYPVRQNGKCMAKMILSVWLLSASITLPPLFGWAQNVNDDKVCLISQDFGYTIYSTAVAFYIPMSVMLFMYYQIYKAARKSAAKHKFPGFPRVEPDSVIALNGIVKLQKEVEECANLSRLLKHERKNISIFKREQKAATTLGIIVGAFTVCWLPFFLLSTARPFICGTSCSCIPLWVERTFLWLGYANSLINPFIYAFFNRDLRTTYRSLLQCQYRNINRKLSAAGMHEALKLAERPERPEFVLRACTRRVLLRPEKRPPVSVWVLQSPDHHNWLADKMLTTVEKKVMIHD
Chain of 5-HT6 serotoninergic receptors (P50406 whole entry): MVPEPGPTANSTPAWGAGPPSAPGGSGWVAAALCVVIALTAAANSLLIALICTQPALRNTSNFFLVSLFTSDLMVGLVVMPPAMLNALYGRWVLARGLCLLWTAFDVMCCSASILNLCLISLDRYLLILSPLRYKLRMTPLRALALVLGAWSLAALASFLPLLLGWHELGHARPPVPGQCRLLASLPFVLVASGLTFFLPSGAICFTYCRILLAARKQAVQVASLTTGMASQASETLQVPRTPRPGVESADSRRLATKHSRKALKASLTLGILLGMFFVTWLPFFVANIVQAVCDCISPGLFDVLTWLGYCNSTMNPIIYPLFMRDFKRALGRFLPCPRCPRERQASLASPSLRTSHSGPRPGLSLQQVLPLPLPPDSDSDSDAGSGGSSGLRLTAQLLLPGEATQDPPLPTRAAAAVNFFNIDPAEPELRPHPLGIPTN
Chain of dopaminergic receptors D3 (P35462 whole entry): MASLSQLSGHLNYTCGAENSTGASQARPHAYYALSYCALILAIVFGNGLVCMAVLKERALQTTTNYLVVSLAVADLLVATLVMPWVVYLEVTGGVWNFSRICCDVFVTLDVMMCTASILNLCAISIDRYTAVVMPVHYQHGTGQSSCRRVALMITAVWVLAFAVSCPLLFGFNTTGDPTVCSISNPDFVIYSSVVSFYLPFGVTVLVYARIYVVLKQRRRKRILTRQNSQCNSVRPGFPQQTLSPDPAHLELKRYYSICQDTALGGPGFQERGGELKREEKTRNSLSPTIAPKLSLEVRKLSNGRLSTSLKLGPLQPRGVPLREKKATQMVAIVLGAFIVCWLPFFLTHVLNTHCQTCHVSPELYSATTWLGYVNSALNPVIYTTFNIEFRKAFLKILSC
Chain of D3 dopaminergic receptors (P35462 whole entry): as above

What is called inhibition is the change of the read-out against control, counted positive when it falls. With `Cc1cccc(S(=O)(=O)NC2CCN(CCCc3c[nH]c4ccc(Cl)cc34)C2)c1` (stereo not shown) [Compound 86, N-[1-[3-(5-chloro-1H-indol-3-yl)propyl]pyrrolidin-3-yl]-3-methyl-benzenesulphonamide], the inhibition at 1 µM in test [1] amounted to 1%; in test [2] it was 70%; in test [4] it was 97%; in test [5], 93%. In addition, the “σ [%]” value in test [3] was determined as 65%. In [6], the “α1 [%]” value is 50%.

For the compound `CC1(C)Cc2cccc(OCCN3CCC(NS(=O)(=O)c4cccc(O)c4)C3)c2O1` (stereo not shown) [Compound 107, N-[1-[2-[(2,2-Dimethyl-3H-benzofuran-7-yl)oxy]ethyl]pyrrolidin-3-yl]-3-hydroxybenzenesulphonamide], the inhibition at 1 µM in test [1] was 8%; in test [2], 30%; in [4], 97%; in [5], 89%; in test [7] it was 86%. The “σ [%]” value in test [3] was found to be 47%. Moreover, the “α1 [%]” value in test [6] came out at 28%.

On to `CC1(C)Cc2cccc(OCCN3CCC(NS(=O)(=O)c4ccc5ccccc5c4)C3)c2O1` (stereo not shown) [Compound 108, N-[1-[2-[(2,2-Dimethyl-3H-benzofuran-7-yl)oxy]ethyl]pyrrolidin-3-yl]naphthalene-2-sulphonamide], for which the inhibition at 1 µM in test [1] was -4%; in test [2] it was 23%; in test [4] it was 95%; in [5], 93%. The “σ [%]” value in test [3] is 45%. The “α1 [%]” value in [6] amounted to 40%.

Regarding `O=S(=O)(NC1CCN(CCOc2cccc3ccccc23)C1)c1ccc2ccccc2c1` (stereo not shown) [Compound 116, N-[1-[2-(1-Naphthyloxy)ethyl]pyrrolidin-3-yl]naphthalene-2-sulphonamide], the inhibition at 1 µM was found to be 9% in test [1], 98% in test [4] and 91% in [5]. In test [3], the “σ [%]” value is on record as 56%. In addition, the “α1 [%]” value in [6] was determined as 23%.

With `O=S(=O)(NCC1CN(CCOc2cccc3ccccc23)C1)c1ccc2ccccc2c1` [Compound 122, N-[[1-[2-(1-Naphthyloxy)ethyl]azetidin-3-yl]methyl]naphthalene-2-sulphonamide], the inhibition at 1 µM was 30% in [1], 100% in test [4], 99% in [5] and 98% in test [7]. In test [8], the “D3 ag [%]” value amounted to 38%. Also, in [8], the “D3 antag [%]” value was 56%. The “5-HT7 ag [%]” value in test [9] amounted to 21%. For the same compound, the “σ [%]” value in test [3] was determined as 81%. In addition, in test [6], the “α1 [%]” value is reported as 53%. Moreover, in test [10], the “5-HT6 ag [%]” value stood at 0%.

`O=S(=O)(NCC1CCN(CCOc2cccc3ccccc23)C1)c1ccc2ccccc2c1` (stereo not shown) [Compound 124, N-[[1-[2-(1-Naphthyloxy)ethyl]pyrrolidin-3-yl]methyl]naphthalene-2-sulphonamide]: the inhibition at 1 µM worked out at 49% in test [1], 94% in [4], 94% in test [5] and 80% in test [7]. Further, the “D3 ag [%]” value in [8] was found to be 11%. Besides, the “D3 antag [%]” value in [8] worked out at 43%. Also, in test [9], the “5-HT7 ag [%]” value came out at 10%. In addition, the “σ [%]” value in test [3] is 82%. For the same compound, the “α1 [%]” value in test [6] came out at 33%. Also, the “5-HT6 ag [%]” value in [10] is 7%.

As usually defined, the Ki is a measure of affinity in units of concentration, obtained from inhibition or displacement. Take `Cc1c(S(=O)(=O)NCC2CN(CCCc3noc4cc(F)ccc34)C2)sc2ccc(F)cc12` [Compound 130, 5-Fluoro-N-[[1-[3-(6-fluoro-1,2-benzoxazol-3-yl)propyl]azetidin-3-yl]methyl]-3-methyl-benzothiophene-2-sulphonamide]: the inhibition at 1 µM was determined as 15% in test [1]; 51% in test [2]; 94% in [4]; 97% in [5]; 89% in test [7]. Further, the “D3 ag [%]” value in [8] came to 5%. Besides, the “D3 antag [%]” value in [8] is on record as 61%. Moreover, the “5-HT7 ag [%]” value in test [9] is given as 0%. Further, the “σ [%]” value in test [3] turned out to be 94%. In addition, in test [5], the Ki amounted to 0.01 µM. Moreover, the “α1 [%]” value in [6] is 86%. The “5-HT6 ag [%]” value in test [10] turned out to be 4%.

As for `Cc1c(S(=O)(=O)NCC2CN(CCCc3noc4cc(F)ccc34)C2)sc2ccc(Cl)cc12` [Compound 131, 5-Chloro-N-[[1-[3-(6-fluoro-1,2-benzoxazol-3-yl)propyl]azetidin-3-yl]-methyl]-3-methyl-benzothiophene-2-sulphonamide], the inhibition at 1 µM in [1] was 17%; in test [2], 51%; in test [4], 94%; in [5], 97%; in [7] it was 88%. Further, the “D3 ag [%]” value in test [8] was −13%. The “D3 antag [%]” value in test [8] was found to be 55%. Further, in test [9], the “5-HT7 ag [%]” value is recorded as 1%. Moreover, in [3], the “σ [%]” value was 92%. The inhibition constant (Ki) in test [5] came out at 0.019 µM. For the same compound, the “α1 [%]” value in test [6] is listed as 70%. The “5-HT6 ag [%]” value in test [10] came out at 3%.

`O=S(=O)(NCC1CN(CCCc2noc3cc(F)ccc23)C1)c1ccc2scnc2c1` [Compound 132, N-[[1-[3-(6-Fluoro-1,2-benzoxazol-3-yl)propyl]azetidin-3-yl]methyl]-1,3-benzothiazole-5-sulphonamide]: the inhibition at 1 µM in test [1] was determined as 10%; in test [2], 33%; in [4], 60%; in test [5] it was 82%; in test [7], 43%. In addition, the “σ [%]” value in test [3] was determined as 80%. Moreover, the “α1 [%]” value in test [6] is listed as 86%.

For `O=S(=O)(NCC1CN(CCCc2noc3cc(F)ccc23)C1)c1cccc2ccccc12` [Compound 133, N-[[1-[3-(6-Fluoro-1,2-benzoxazol-3-yl)propyl]azetidin-3-yl]methyl]-naphthalene-1-sulphonamide], the inhibition at 1 µM in test [1] turned out to be 17%; in [2], 58%; in test [4] it was 74%; in test [5], 93%; in test [7], 47%. For the same compound, in test [3], the “σ [%]” value was 93%. In test [6], the “α1 [%]” value stood at 90%.

Consider `O=S(=O)(NCC1CN(CCCc2noc3cc(F)ccc23)C1)c1ccc2ccccc2c1` [Compound 134, N-[[1-[3-(6-Fluoro-1,2-benzoxazol-3-yl)propyl]azetidin-3-yl]methyl]-naphthalene-2-sulphonamide], for which the inhibition at 1 µM worked out at 34% in test [1]; 45% in test [2]; 80% in test [4]; 96% in [5]; 87% in test [7]. Besides, the “5-HT7 ag [%]” value in test [9] is 1%. Further, the “σ [%]” value in test [3] worked out at 88%. Further, in [6], the “α1 [%]” value came to 61%. Further, in test [10], the “5-HT6 ag [%]” value is reported as 4%.
